From patent US9688760B2, “Anti-leukocyte adhesion for the mitigation of potential adverse events caused by CD3-specific binding domains” (AMGEN RESEARCH (MUNICH) GMBH, priority 2013, dated 2017)
Like-named read-outs stand apart in the source and are kept apart here.

Key:
[1] = test system: recombinant human VCAM-1; test: Flow chamber: T cell-rolling on recombinant VCAM-1, semi short-term conditions; format: cell-based; details: freshly isolated T cells
Method: (§1) Recombinant proteins (rhICAM-1 #ADP4-050, rhVCAM-1 #ADP5-050 or rhP-selectin #ADP3-050, R&D Systems) were dissolved in ddH2O according to the manufacturer's instructions. Prior to rolling experiments recombinant proteins were diluted in Dulbecco's PBS with Ca^2+ and Mg^2+ (#L1815, Biochrom) and coated onto a μ-slide VI^0.4 Luer ibiTreat (#80606, ibidi) over night at 4° C. Before usage slides were washed three times with Dulbecco's PBS and blocked where indicated with 20% FBS (#10270, Gibco) in PBS for 2 h at room temperature. Blocking solution was replaced by RPMI 1640 medium (#FG1215, Biochrom) without supplements.
(§2) Isolation and characterization of human peripheral blood mononuclear cells (PBMC) and T cells from blood were performed as described in Example 2 (p. 48, 1-31).
(§3) For rolling experiments using freshly isolated T cells, these cells were resuspended in RPMI 1640 medium (#FG1215, Biochrom) without supplements to a final concentration of 1×10^6 cells/ml at the start of the experiment (t=0 min; addition of 10 ng/ml Blinatumomab (AMG 103)) and incubated for 35 min at 37° C. and 5% CO2. Cells were then filled in a perfusion set “white” (#10963, ibidi) which was connected to both a fluidic unit and the μ-slide and image sequences of 45 sec duration were recorded at t=40 min, 45 min, and 50 min as described in Example 2 (p. 50, 18-23). […]

[2] = test system: patients; details: cited from earlier work
[3] = test system: recombinant human P-selectin; test: Flow chamber: T cell-rolling on recombinant P-selectin, semi short-term conditions; format: cell-based; details: +AMG 103 10 ng/ml, coated at 20 μg/ml
Method: as §1
Isolation and characterization of human peripheral blood mononuclear cells (PBMC) and T cells from blood were performed as described in Example 2 (p. 48, 1-31). […]
as §3

[4] = test system: patients; test: Phase 1 clinical study: Blinatumomab with PPS co-medication; format: in vivo, human; details: for clinical response: with PPS co-medication
Method: In a phase 1 clinical study three patients were treated with Blinatumomab at an initial dose of 5 μg/m^2/day for 1 week followed by a dose escalation to 60 μg/m^2/day for additional 3 to 7 weeks.

[5] = test system: recombinant human ICAM-1; test: Flow chamber: T cell-rolling on recombinant ICAM-1, semi short-term conditions; format: cell-based; details: freshly isolated T cells, +AMG 103 10 ng/ml, t=45 min; coated at 12.5 μg/ml, with blocking; control −AMG 103 383±144
Method: as §1, §2, §3

[6] = test system: recombinant human ICAM-1/VCAM-1; test: Flow chamber: Jurkat E6.1 T cell-rolling on recombinant ICAM-1/VCAM-1, semi short-term conditions; format: cell-based; details: Jurkat E6.1 T cells, +AMG 103 10 ng/ml, t=45 min; coated at 12.5 and 10 μg/ml; control −AMG 103 640±91
Method: as §1, with “supplements. […]” for “supplements.”
For rolling experiments using Jurkat E6.1 T cells, these cells were resuspended in RPMI 1640 medium (#FG1215, Biochrom) without supplements to a final concentration of 1.5-3×10^5 cells/ml. […] Image sequences of 45 sec duration were recorded at t=40 min, 45 min, and 50 min as described in Example 2 (p. 50, 18-23).
Experiments under defined hydrodynamic flow conditions were performed by using either freshly isolated human T cells or Jurkat E6.1 T cells and μ-slide VI^0.4 Luer ibiTreat (#80606, ibidi) coated with different recombinant proteins as described above. […] T cell-interactions with recombinant proteins were recorded as described above and data was analyzed as described in detail in Example 2 (p. 50, 23-30). […]

[7] = three patients with PPS co-medication

Which “mean T cell-rolling velocity±SD” value ([1]; +AMG 103 10 ng/ml with vehicle DMSO, t=40 min, coated at 20 μg/ml, control −AMG 103 259±35) does the source give for “Blinatumomab: recombinant CD19×CD3 bispecific scFv antibody consisting of four immunoglobulin variable domains assembled into a single polypeptide chain” here?
The value was 205±45 μm/sec.

What about the “mean T cell-rolling velocity±SD” value ([1]; +AMG 103 10 ng/ml, t=45 min, coated at 10 μg/ml, with blocking, control −AMG 103 418±136) of the same substance?
The value was 353±72 μm/sec.

And the “effect on malignant B cells in bone marrow and liver” value ([2]; B-NHL)?
Its value is “clearance of malignant B cells from bone marrow and liver”.

And the clinical response ([2]; B-NHL, dose level of 0.015 mg/m^2/day)?
The clinical response was “Partial and complete responses were first observed”.

And the “effect on B lymphoma cells in peripheral blood” value ([2]; B-NHL, doses as low as 0.005 mg/m^2/day civ infusion over four weeks)?
Its value is “complete and sustained elimination of B lymphoma cells in peripheral blood”.

And the clinical response ([2]; B-precursor ALL, minimal residual disease and relapsed or refractory, four-week civ infusions, 0.015 mg/m^2/day)?
The clinical response was “hematological complete response”.

What about the clinical response ([2]; majority of B-NHL patients, dose level of 0.06 mg/m^2/day) of the same substance?
Its clinical response is “substantial tumor regression”.

What about the “mean T cell-rolling velocity±SD” value ([3]; Jurkat E6.1 T cells, t=45 min, control −AMG 103 500±81) of the same substance?
Its value is 413±104 μm/sec.

What about the “mean T cell-rolling velocity±SD” value ([3]; freshly isolated T cells, t=50 min, with blocking, control −AMG 103 402±115) of the same substance?
Its value is 293±73 μm/sec.

What about the clinical response ([4]; Patient 109-036, Follicular Lymphoma grade I/II, after 57 days of civ infusion) of the same substance?
Its clinical response is “complete response (CR)”.

What about the clinical response ([4]; Patient 109-040, Lymphoplasmocytic Lymphoma, after 30 days of civ infusion) of the same substance?
Its clinical response is “stable disease (SD)”.

What about the clinical response ([4]; Patient 109-042, Follicular Lymphoma grade I/II, after 56 days of civ infusion) of the same substance?
Its clinical response is “complete response (CR)”.

And the “T cell-counts in peripheral blood 45 minutes after start of infusion or stepwise dose increase” value ([4]; patients receiving Blinatumomab without co-medication with PPS)?
Its value is “rapid decline of T cell-counts”.

And the “clinical response after 4 weeks of treatment” value [4, 7]?
Its value is “one patient had a stable disease”.

And the “clinical response after 8 weeks of treatment” value [4, 7]?
The value was “Two out of the three patients achieved a complete response”.

And the “mean T cell-rolling velocity±SD” value [5]?
Its value is 314±79 μm/sec.

And the “mean T cell-rolling velocity±SD” value [6]?
Its value is 518±98 μm/sec.
